Reference: ChEMBL document CHEMBL1201862, “PubChem BioAssay data set” (2004)
Active and inactive are the calls of the source.

How the values were obtained:
[1] = viability of uninfected HEp-2 cells – cell-based, HTS, cytotoxicity control for RSV inhibitor project, dose response (AID 2410); format: functional; details: human respiratory syncytial virus
Cytochrome P450 2C19 = Cytochrome P450 2C19 (Homo sapiens, UniProt P33261); experiment: Cytochrome panel assay with activity outcomes. Panel member name: p450-cyp2c19 Compounds with AC50 equal or less than 10 uM are considered active; format: functional; details: read-out: AC50
Sequence of Cytochrome P450 2C19 (P33261 whole entry): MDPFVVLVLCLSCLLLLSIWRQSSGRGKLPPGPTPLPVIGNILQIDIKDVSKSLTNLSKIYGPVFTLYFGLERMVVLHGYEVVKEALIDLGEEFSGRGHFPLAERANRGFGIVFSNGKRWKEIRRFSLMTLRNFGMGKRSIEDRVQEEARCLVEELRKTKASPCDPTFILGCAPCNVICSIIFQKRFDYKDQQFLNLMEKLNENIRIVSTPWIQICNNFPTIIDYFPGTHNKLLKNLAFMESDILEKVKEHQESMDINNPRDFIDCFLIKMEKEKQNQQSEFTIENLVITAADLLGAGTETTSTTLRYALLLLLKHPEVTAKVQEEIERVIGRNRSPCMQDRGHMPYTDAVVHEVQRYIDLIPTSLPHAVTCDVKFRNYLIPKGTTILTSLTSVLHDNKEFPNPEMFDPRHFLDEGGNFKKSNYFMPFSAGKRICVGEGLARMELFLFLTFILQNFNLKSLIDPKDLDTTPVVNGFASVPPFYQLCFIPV

[2] = molecular target: T1, Heat shock factor protein 1 (Mus musculus, UniProt P38532); experiment: enhancement of HSF1-driven luciferase signal – cell-based, NIH3T3, luminescence, dose retest, confirmation (AID 435004); format: functional;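 note: stress induced by proteasome inhibitor MG132 added 30 min after compound; luciferase reporter driven by HSF1 response element in NIH3T3 cells; actives raise luminescence as potentiators of the MG132 stress response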
T1 sequence (P38532 whole entry): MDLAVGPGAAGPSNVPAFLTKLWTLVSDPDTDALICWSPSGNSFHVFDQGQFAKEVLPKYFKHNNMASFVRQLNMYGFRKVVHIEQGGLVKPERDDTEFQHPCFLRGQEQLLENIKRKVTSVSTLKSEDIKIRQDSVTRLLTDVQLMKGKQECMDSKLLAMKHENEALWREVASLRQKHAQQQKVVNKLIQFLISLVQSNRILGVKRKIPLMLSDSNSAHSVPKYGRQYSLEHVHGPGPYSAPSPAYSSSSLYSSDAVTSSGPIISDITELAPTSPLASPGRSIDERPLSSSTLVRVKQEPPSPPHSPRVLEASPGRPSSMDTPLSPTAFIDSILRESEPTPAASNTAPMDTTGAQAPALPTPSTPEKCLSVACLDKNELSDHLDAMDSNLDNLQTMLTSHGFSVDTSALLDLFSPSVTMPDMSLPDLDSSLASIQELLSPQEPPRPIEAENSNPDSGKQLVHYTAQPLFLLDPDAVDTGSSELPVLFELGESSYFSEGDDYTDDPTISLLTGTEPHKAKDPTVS

[3] = Trypanosoma cruzi growth suppression in host cells – NIH3T3 host cells, beta-gal luminescence, confirmation (AID 2044); format: functional, cell-based;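 note: intracellular parasites grown in NIH/3T3 mouse fibroblasts as host cells; luminescent beta-galactosidase reporter signal from transgenic T. cruzi replicating inside host cells; inhibitors lower the luminescence signal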
[4] = NIH3T3 cell viability loss – ATP luminescence, mouse fibroblasts, counter-screen, dose response (AID 2010); format: functional, cell-based;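 note: cells exposed to compound for about 90 hours before reading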
Streptococcus = experiment: GAS UMAA2166 growth inhibition – luminescence, BacTiterGlo, counter-screen for streptokinase expression inhibitor project, dose response (AID 1915); format: functional, organism-based;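 note: potency for reduction of bacterial viability or growth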
[5] = tested on: Streptococcus sp. 'group A'; experiment: Streptococcus pyogenes SK(-)GAS viability under kanamycin – luminescence, BacTiterGlo, confirmation, counter-screen for streptokinase expression inhibitor project, dose response (AID 1900); format: functional, organism-based
Streptokinase A = molecular target: T2, Streptokinase A (Streptococcus pyogenes serotype M1, UniProt P10520); experiment: viability-normalized secreted streptokinase activity reduction – plasminogen activation absorbance, OD405, dose response (AID 1914); format: functional, Streptococcus pyogenes M1 GAS;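 note: secreted streptokinase activity via plasminogen activation per viability signal from cell pellet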
T2 sequence (P10520 whole entry): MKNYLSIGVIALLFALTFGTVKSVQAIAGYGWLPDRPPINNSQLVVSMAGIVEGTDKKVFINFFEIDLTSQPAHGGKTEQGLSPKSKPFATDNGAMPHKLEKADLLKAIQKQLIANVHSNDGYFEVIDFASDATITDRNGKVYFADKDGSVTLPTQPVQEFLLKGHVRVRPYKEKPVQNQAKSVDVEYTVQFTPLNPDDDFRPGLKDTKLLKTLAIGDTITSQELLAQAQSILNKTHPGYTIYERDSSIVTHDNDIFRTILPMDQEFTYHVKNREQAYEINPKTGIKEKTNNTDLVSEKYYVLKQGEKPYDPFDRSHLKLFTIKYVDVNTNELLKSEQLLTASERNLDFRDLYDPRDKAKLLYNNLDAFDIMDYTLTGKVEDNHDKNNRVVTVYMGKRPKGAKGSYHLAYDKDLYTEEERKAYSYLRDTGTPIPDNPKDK

In the case of `Nc1c(Cl)cc(-c2csc(N3CCCC3c3nc4cc(Cl)c(Cl)cc4n3CCCO)n2)cc1Cl` (configuration not stated), the CC50 [1] is reported as 35.1 µM (active).

With `Cc1sc(NC(=O)c2c(F)cccc2F)nc1-c1ccccc1` the CC50 [1] was 43.2 µM (active).

In the case of `COc1cc(C(=O)NCC(c2cccs2)N2CCc3ccccc32)cc(OC)c1OC` (configuration not stated), the CC50 [1] is reported as 18 µM (active).

With `Cc1cc(OC(=O)c2ccccc2Br)cc(=O)n1C` the AC50 (Cytochrome P450 2C19) was 39.8 µM (inconclusive).

With `CCNc1nc(NC(C)C)nc(N(C#N)C(C)C(=O)N(CC)CC)n1` (configuration not stated) the CC50 [1] was 28.8 µM (active).

For `C=CCOc1ccc(-c2nc3c(c(=O)[nH]c(=O)n3Cc3ccccc3)n2CCCOC)cc1`, the EC50 [2] was > 260 µM (inactive).

In the case of `Cc1ccccc1OCCCC(=O)Nc1ccccc1C(F)(F)F`, the EC50 [2] is reported as > 260 µM (inactive).

In the case of `COc1cc(C(=O)NCC(c2cccnc2)N2CCN(c3ccc(F)cc3)CC2)cc(OC)c1OC` (configuration not stated), the EC50 [3] is reported as 0.959 µM (active) and the EC50 [4] is reported as > 30 µM (not active).

In the case of `COc1ccc(-c2cc(-c3ccc(Cl)cc3)[nH]n2)c(O)c1`, the EC50 (Streptococcus) is reported as 9.14 µM (active), the EC50 [5] is reported as 7.27 µM (active) and the EC50 (Streptokinase A) is reported as > 150 µM (not active).

In the case of `N#CCCN1CCN(C(=S)c2ccc(-c3ccc(Cl)c(Cl)c3)o2)CC1`, the EC50 [2] is reported as 3.72 µM (active).

With `COc1cc(C(=O)NCC2CCCO2)ccc1OCc1ccc(Cl)cc1Cl` (configuration not stated) the EC50 [2] was 104 µM (active).

In the case of `CCN(CC)CCCNC(=O)c1ccc(OCC(=O)Nc2ccccc2C(F)(F)F)c(OC)c1`, the EC50 [3] is reported as 1.95 µM (active) and the EC50 [4] is reported as > 30 µM (not active).

With `O=C(O)CSc1nc2ccccc2nc1Cc1ccccc1F` the EC50 [2] was > 260 µM (inactive).

For `O=C(Nc1nc2c(s1)CN(Cc1ccccc1)CC2)c1c(F)cccc1F`, the CC50 [1] was 16.1 µM (active).

In the case of `Nc1nc(-c2cccnc2)nc2sc3c(c12)CCCC3`, the CC50 [1] is reported as > 50 µM (active).

With `COc1ccc(C2CC(=O)c3c(C)nc(N4CCN(Cc5ccccc5)CC4)nc3C2)cc1OC` (configuration not stated) the EC50 [3] was 1.85 µM (active) and the EC50 [4] was > 60 µM (not active).

In the case of `Cc1ccc2nc(-c3ccncc3)c(NC3CCCCC3)n2c1`, the EC50 [3] is reported as 1.86 µM (active) and the EC50 [4] is reported as > 60 µM (not active).

In the case of `COc1ccccc1OCc1nnc(SCCN2CCOCC2)o1`, the EC50 [2] is reported as > 260 µM (inactive).

In the case of `Cc1ccc(C)c(N2CCN(C(=O)CCC(=O)N3CCOc4ccc(Cl)cc43)CC2)c1`, the EC50 [3] is reported as 2.47 µM (active) and the EC50 [4] is reported as > 60 µM (not active).

For `CCCC(CCC)C(=O)OC[N+](C)(C)CCOC(=O)C(O)(c1ccccc1)C1CCCC1` (configuration not stated), the EC50 [3] was 1.31 µM (active) and the EC50 [4] was > 60 µM (not active).

With `Cc1cc(C)cc(Nc2ccc([N+](=O)[O-])nc2[N+](=O)[O-])c1` the EC50 [3] was 1.63 µM (active) and the EC50 [4] was > 60 µM (not active).

In the case of `CC(Oc1cccc(Cl)c1)C(=O)Nc1ccccc1N1CCCCC1` (configuration not stated), the EC50 (Streptococcus) is reported as 26.4 µM (active), the EC50 [5] is reported as 9.74 µM (active) and the EC50 (Streptokinase A) is reported as 13.5 µM (active).

For `COc1ccccc1NS(=O)(=O)c1cc(NC(=S)NCC2CCCO2)ccc1C` (configuration not stated), the EC50 (Streptokinase A) was > 150 µM (not active).

With `COc1ccccc1NS(=O)(=O)c1cc(NC(S)=NCC2CCCO2)ccc1C` (configuration not stated) the EC50 (Streptococcus) was > 150 µM (not active) and the EC50 [5] was > 150 µM (not active).

With `Cc1cc(-c2ccccc2)c2c(O)[nH]nc2n1` the CC50 [1] was 48.2 µM (active).

In the case of `COc1ccc(C2C(C(C)=O)=C(O)C(=O)N2c2ccc(C)cc2)cc1` (configuration not stated), the EC50 [2] is reported as > 260 µM (inactive).

For `CC(C)(C)c1[nH]ncc1[N+](=O)[O-]`, the EC50 [2] was > 260 µM (inactive).

In the case of `Cc1ccccc1N=C(S)N(Cc1cccnc1)Cc1ccccc1Cl`, the EC50 [3] is reported as 0.8 µM (active) and the EC50 [4] is reported as > 60 µM (not active).

In the case of `CC(=O)c1ccc(N=C(S)N2C(C)CCCC2C)cc1` (configuration not stated), the EC50 [2] is reported as > 260 µM (inactive).

With `CCN(CCCC(=O)c1ccc(F)cc1)CCc1ccccc1` the EC50 [3] was 0.111 µM (active) and the EC50 [4] was > 60 µM (not active).

In the case of `Cc1nc(N2CCN(Cc3ccc4c(c3)OCO4)CC2)c2cc(-c3ccccc3)sc2n1`, the EC50 (Streptococcus) is reported as 112 µM (active), the EC50 [5] is reported as 19.3 µM (active) and the EC50 (Streptokinase A) is reported as > 150 µM (not active).

For `Cc1cc(OCCCn2ccnc2)ccc1C(C)C`, the EC50 [3] was 1.99 µM (active) and the EC50 [4] was > 60 µM (not active).

In the case of `Brc1c[nH]c2nc(SC/C=C/c3ccccc3)nc-2c1`, the EC50 [2] is reported as 1.37 µM (active).

In the case of `COc1ccc(-n2c(=S)[nH]c3cc(C(=O)Nc4ccc(C)c(F)c4)ccc3c2=O)c(OC)c1`, the EC50 (Streptococcus) is reported as 14.8 µM (active), the EC50 [5] is reported as 9.84 µM (active) and the EC50 (Streptokinase A) is reported as > 150 µM (not active).

For `COc1ccc(-c2ncc(CN3CCN(CCC(C)C)C(CCO)C3)cn2)cc1` (configuration not stated), the EC50 [3] was 0.933 µM (active) and the EC50 [4] was 12.3 µM (active).

With `Cc1cccc(C(=O)N2CCC(=O)N(C(COCc3ccc(Cl)cc3)Cc3ccccc3)CC2)c1` (configuration not stated) the CC50 [1] was 19.6 µM (active).

For `Cc1ccccc1Oc1nc2c(C)cccn2c(=O)c1/C=C(\C#N)C(=O)Nc1c(C)n(C)n(-c2ccccc2)c1=O`, the EC50 [2] was 12.1 µM (active).

With `O=C(Nc1ncc(Cc2cccc(C(F)(F)F)c2)s1)c1ccc(-c2cccc([N+](=O)[O-])c2)o1` the EC50 [3] was 1.73 µM (active) and the EC50 [4] was 9.52 µM (active).

For `O=C(NC12CC3CC(CC(C3)C1)C2)c1ccc(-c2ccc(Br)cc2)o1`, the EC50 (Streptococcus) was 9.47 µM (active), the EC50 [5] was 4.59 µM (active) and the EC50 (Streptokinase A) was 35.3 µM (active).

With `CCN(C(=O)c1cc2c(s1)-c1ccccc1OC2)c1cc(OC)ccc1OC` the CC50 [1] was 26.8 µM (active).

With `CCN1CCN(C(CNS(=O)(=O)c2ccc(C)cc2)c2cccnc2)CC1` (configuration not stated) the EC50 (Streptococcus) was > 150 µM (not active), the EC50 [5] was > 150 µM (not active) and the EC50 (Streptokinase A) was > 150 µM (not active).

With `COc1ccc(Cl)cc1C(=O)NNC(=S)NC(=O)c1cc(-c2ccc(Cl)cc2)nc2ccccc12` the EC50 (Streptococcus) was 6 µM (active) and the EC50 [5] was 0.202 µM (active).

With `CCCC(=O)Nc1cc(-c2nn(C)c(=O)c3ccccc23)ccc1OC` the EC50 [2] was > 260 µM (inactive).

With `OCCC1CN(Cc2cc3c(cc2Cl)OCO3)CCN1Cc1ccccc1` (configuration not stated) the EC50 [3] was 1.21 µM (active) and the EC50 [4] was > 60 µM (not active).

In the case of `CC(=O)c1cccc(S(=O)(=O)N2CCCC(c3nc(O)c4nnn(Cc5cccc(Cl)c5)c4n3)C2)c1` (configuration not stated), the CC50 [1] is reported as > 50 µM (active).

In the case of `C#C[C@@]1(O)CC[C@@H]2[C@@H]3CCC4=CC(=O)CC[C@@H]4[C@H]3CC[C@]21CC`, the AC50 (Cytochrome P450 2C19) is reported as 0.0794 µM (inconclusive).

In the case of `Cc1ccc(C)c(S(=O)(=O)N2CCN(CC(=O)Nc3cc(C)on3)CC2)c1`, the EC50 [2] is reported as > 260 µM (inactive).

In the case of `C=CCn1c(-c2ccc(Cl)cc2)ccc(C#N)c1=O`, the CC50 [1] is reported as > 50 µM (active).

For `CC(Oc1ccc(Cl)cc1Cl)C(=O)NCCCCc1ccccc1` (configuration not stated), the EC50 [2] was > 260 µM (inactive).

In the case of `Cc1ccc2nc(-c3ccncc3)c(NC3CCCC3)n2c1`, the EC50 [3] is reported as 2.29 µM (active) and the EC50 [4] is reported as > 60 µM (not active).

In the case of `COc1ccc(-c2ccc([C@H]3[C@@H]4C=CCC[C@@]4(C)C(=O)N3Cc3ccccc3)c(F)c2)cc1OC`, the EC50 [3] is reported as 2.55 µM (active) and the EC50 [4] is reported as 37.1 µM (active).

In the case of `CC1(C)CC(=O)C(/C=N/c2cccnc2)=C(O)C1`, the EC50 [2] is reported as 16.6 µM (active).

In the case of `C/C(=N\NC(=O)c1ccccc1N)c1ccc(NC(=O)Cc2ccccc2)cc1`, the EC50 (Streptococcus) is reported as 16.3 µM (active), the EC50 [5] is reported as 3.07 µM (active) and the EC50 (Streptokinase A) is reported as > 150 µM (not active).

In the case of `C/C(=N\Nc1nc(C)cc(-c2ccccc2)n1)c1ccc(C)o1`, the EC50 [2] is reported as > 260 µM (inactive).

For `C=CCn1sc(N)c(C(=O)OCC)c1=S`, the CC50 [1] was 24 µM (active).

With `COc1cccc(-c2c(C#N)c(N)nc3c2c(C)nn3-c2ccccc2)c1O` the EC50 [2] was 57.9 µM (active).
